“And” between values parts separate entries of the source, which are not always exact repeats. Equal entries are not always repeated. Toxic doses and inconclusive results are not listed.
System: P388 leukemia ip, CD2F1 mice, survival T/C
Experiment: NCI In Vivo Anticancer Drug Screen. Data for tumor model P388 Leukemia (intraperitoneal) in CD2F1 (CDF1) mice
Settings: endpoint: median survival time, higher = longer survival
Summary of the method: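 Mice carrying the transplanted tumor received test compound or vehicle. Survival was recorded in each group, and the value is the treated-group measurement divided by that of the vehicle-treated control group.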

[1] = dose: 12.5 mg/kg/injection, schedule: Q01DX005 (ip), vehicle: saline with Tween-80
[2] = dose: 50.0 mg/kg/injection, schedule: Q01DX005 (ip), vehicle: saline with Tween-80
[3] = dose: 100.0 mg/kg/injection, schedule: Q01DX005 (ip), vehicle: saline with Tween-80
[4] = dose: 200.0 mg/kg/injection, schedule: Q01DX005 (ip), vehicle: saline with Tween-80

Q: With O=c1c(F)cn(C(c2ccccc2)c2ccccc2)c(=O)n1C(c1ccccc1)c1ccccc1 as the compound, how does the T/C (dose: 12.5 mg/kg/injection, schedule: Q01DX009 (ip), vehicle: suspension in saline) read?
A: 101 % of control

Q: What about the T/C (dose: 18.75 mg/kg/injection, schedule: Q01DX009 (ip), vehicle: suspension in saline) of the same compound?
A: 115 % of control

Q: And the T/C (dose: 25.0 mg/kg/injection, schedule: Q01DX009 (ip), vehicle: suspension in saline)?
A: 106 % of control

Q: What about the T/C (dose: 37.5 mg/kg/injection, schedule: Q01DX009 (ip), vehicle: suspension in saline) of the same compound?
A: 97 % of control

Q: And the T/C (dose: 50.0 mg/kg/injection, schedule: Q01DX009 (ip), vehicle: suspension in saline)?
A: 100 % of control

Q: What about the T/C (dose: 75.0 mg/kg/injection, schedule: Q01DX009 (ip), vehicle: suspension in saline) of the same compound?
A: 101 % of control and 115 % of control

Q: What about the T/C (dose: 150.0 mg/kg/injection, schedule: Q01DX009 (ip), vehicle: suspension in saline) of the same compound?
A: 97 % of control

Q: Which T/C (dose: 16.0 mg/kg/injection, schedule: Q01DX009 (ip), vehicle: saline with Tween-80) does the source give for CNC(=O)Oc1ccc[nH]c1=O here?
A: 106 % of control and 110 % of control

Q: What about the T/C (dose: 25.0 mg/kg/injection, schedule: Q01DX009 (ip), vehicle: saline) of the same compound?
A: 106 % of control and 112 % of control

Q: And the T/C (dose: 25.0 mg/kg/injection, schedule: Q01DX009 (sc), vehicle: saline)?
A: 102 % of control and 109 % of control

Q: What about the T/C (dose: 32.0 mg/kg/injection, schedule: Q01DX009 (ip), vehicle: saline with Tween-80) of the same compound?
A: 112 % of control and 122 % of control

Q: And the T/C (dose: 50.0 mg/kg/injection, schedule: Q01DX009 (ip), vehicle: saline)?
A: 116 % of control and 120 % of control

Q: What about the T/C (dose: 50.0 mg/kg/injection, schedule: Q01DX009 (sc), vehicle: saline) of the same compound?
A: 109 % of control and 115 % of control

Q: What about the T/C (dose: 64.0 mg/kg/injection, schedule: Q01DX009 (ip), vehicle: saline with Tween-80) of the same compound?
A: 120 % of control

Q: What about the T/C (dose: 100.0 mg/kg/injection, schedule: Q01DX009 (sc), vehicle: saline) of the same compound?
A: 111 % of control and 113 % of control

Q: And the T/C (dose: 128.0 mg/kg/injection, schedule: Q01DX009 (ip), vehicle: saline with Tween-80)?
A: 120 % of control

Q: And the T/C (dose: 200.0 mg/kg/injection, schedule: Q01DX009 (sc), vehicle: saline)?
A: 115 % of control and 120 % of control

Q: And the T/C (dose: 400.0 mg/kg/injection, schedule: Q01DX009 (ip), vehicle: saline)?
A: 153 % of control

Q: What about the T/C (dose: 400.0 mg/kg/injection, schedule: Q01DX009 (sc), vehicle: saline) of the same compound?
A: 122 % of control

Q: For COc1ccc(C(=O)CC(=O)CCC(=O)Nc2cc(C)ccc2C)cc1, which T/C (dose: 60.0 mg/kg/injection, schedule: Q01DX005 (ip), vehicle: saline with Tween-80) is on record?
A: 101 % of control

Q: What about the T/C (dose: 120.0 mg/kg/injection, schedule: Q01DX005 (ip), vehicle: saline with Tween-80) of the same compound?
A: 105 % of control

Q: What about the T/C (dose: 240.0 mg/kg/injection, schedule: Q01DX005 (ip), vehicle: saline with Tween-80) of the same compound?
A: 97 % of control

Q: With O=C1NCCCCC1(Cl)Cl as the compound, how does the T/C [1] read?
A: 99 % of control

Q: What about the T/C (dose: 25.0 mg/kg/injection, schedule: Q01DX005 (ip), vehicle: saline with Tween-80) of the same compound?
A: 101 % of control

Q: And the T/C [2]?
A: 99 % of control and 103 % of control

Q: With COC(=O)C[C@](O)(CCC(C)(C)O)C(=O)O[C@@H]1C(OC)=C[C@]23CCCN2CCc2cc4c(cc2[C@H]13)OCO4 as the compound, how does the T/C (dose: 0.5 mg/kg/injection, schedule: Q01DX009 (ip), vehicle: saline) read?
A: 177 % of control

Q: And the T/C (dose: 1.0 mg/kg/injection, schedule: Q01DX009 (ip), vehicle: saline)?
A: 231 % of control

Q: Which T/C (dose: 100.0 mg/kg/injection, schedule: Q04DX003 (ip), vehicle: saline with Tween-80) does the source give for O=c1c2c([nH]c3ccc4[nH]c5c(c(=O)c4c13)CCCC5)CCCC2 here?
A: 94 % of control

Q: What about the T/C (dose: 200.0 mg/kg/injection, schedule: Q04DX003 (ip), vehicle: saline with Tween-80) of the same compound?
A: 91 % of control

Q: And the T/C (dose: 400.0 mg/kg/injection, schedule: Q04DX003 (ip), vehicle: saline with Tween-80)?
A: 87 % of control

Q: Which T/C (dose: 100.0 mg/kg/injection, schedule: Q01DX009 (ip), vehicle: distilled water + Tween-80) does the source give for CNC(=O)OCc1c(COC(=O)NC)c(-c2ccc(Cl)cc2Cl)n2c1CCC2 here?
A: 164 % of control

Q: With CC1C(c2ccccc2)N(C)C(c2ccccc2)C(C)C1(O)c1ccccc1 (configuration not stated) as the compound, how does the T/C [2] read?
A: 97 % of control

Q: And the T/C [3]?
A: 94 % of control

Q: And the T/C [4]?
A: 94 % of control

Q: What does the source list for N=C1C=CC(=C(c2ccc(N)cc2)c2ccc(N)cc2)C=C1?
A: T/C (dose: 6.25 mg/kg/injection, schedule: Q01DX005 (ip), vehicle: saline with Tween-80): 98 % of control; T/C [1]: 98 % of control

Q: Which results are given for COc1ccc(Cc2cc3c(cc2OCC(=O)O)OCO3)cc1?
A: T/C [2]: 97 % of control; T/C [3]: 100 % of control; T/C [4]: 93 % of control

Q: Which results are given for NC1CCC[C@@H](O)[C@H]1O (some centres not stated)?
A: T/C (dose: 60.0 mg/kg/injection, schedule: Q01DX005 (ip), vehicle: saline): 104 % of control; T/C (dose: 120.0 mg/kg/injection, schedule: Q01DX005 (ip), vehicle: saline): 103 % of control; T/C (dose: 240.0 mg/kg/injection, schedule: Q01DX005 (ip), vehicle: saline): 98 % of control
